Test results: PubChem BioAssay (NCI)
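1) Cells in 96-well plates. 2) Compound, 48 h, 5 concentrations. 3) Linear interpolation between surrounding doses. 4) Unreached endpoint = highest concentration. Here, GI50 denotes the concentration required for 50% inhibition of growth. TGI: concentration producing complete growth inhibition.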

The compounds below were run on HT29 colon (assay: DTP human tumour cell line panel, 48 h).

Row | SMILES | GI50 [µM] | TGI [µM]
1 | O=C(CCN1CCOCC1)Nc1cccc(-n2cc(-c3ccncc3)c(-c3ccc(Cl)c(O)c3)n2)c1 | 1.9 | 11
2 | C=C(C)[C@@H]1CC[C@]2(C)[C@H](CC[C@@H]3[C@@H]([C@@](C)(O)CCC=C(C)C)CC[C@]32C)[C@@]1(C)CCC(=O)O | 24.1 | > 100
3 | c1ccc(NCCSc2nc3ccccc3s2)cc1 |  | > 100
4 | Oc1ccc(Oc2cnc3ccccc3n2)cc1 | > 100 | > 100
5 | Cc1ccc2occ/c(=N\Nc3ccccc3)c2c1 |  | > 100
6 | CC(=O)NC1CONC1=O (stereo unspecified) |  | > 100
7 | Oc1ccc(N=Nc2nccs2)c(O)c1 | 3.61 | 23.1
8 | COc1cc(/C=C/C(=O)Oc2ccccc2)ccc1C(=O)O/C=C/c1ccccc1 |  | > 100
9 | CC(Cl)CN1c2ccccc2Sc2ccc(Cl)cc21 (stereo unspecified) |  | > 10
10 | O=C1c2ccccc2C(=O)c2c(NCCN=Cc3ccccc3O)cccc21 | 2.26 | 
11 | Oc1ccc(/C=C/c2cc(O)cc3c2C(c2cc(O)cc(O)c2)C(c2ccc(O)c(O)c2)O3)cc1 (stereo unspecified) |  | 47.6
12 | CC1(C)N=C(N)N=C(N)N1c1cccc(OCCOc2cccc([N+](=O)[O-])c2)c1 | 0.583 | > 100
13 | CCc1nc(Cl)c(Cl)c(Cl)n1 |  | > 100
14 | O=[N+]([O-])c1ccc(Sc2c3ccccc3nc3ccccc23)cn1 |  | 28
15 | CNC(C)[C@H]1CCC2C3CC=C4C(=O)[C@@H](NC(=O)C=C(C)C)CC[C@]4(C)C3CC[C@@]21C (stereo partly specified) | 0.358 | 1.59
16 | Clc1nc(Cl)c2ncn(Cc3ccccc3Cn3cnc4c(Cl)nc(Cl)nc43)c2n1 | 2.13 | 
17 | CS(=O)(=O)CS(=O)(=O)OCCCl |  | 1320
18 | CC(C)(C)c1cc(C(=O)/C=C/c2ccc(C(=O)O)cc2)cc(C(C)(C)C)c1 |  | 13.2
19 | COc1ccc(-c2ccc(NNC(=O)c3ccc(F)cc3)nn2)cc1OC | > 100 | > 100
20 | Cc1noc2c1-c1ccccc1C(c1ccc(Cl)cc1)=N[C@H]2CC(N)=O | 1.35 | > 100
21 | O=C(N/N=C/c1ccc(O)cc1O)c1cccnc1 | 7.52 | > 100
22 | O=C(NNc1cnccn1)c1nc2cc(F)ccc2n2cccc12 | 0.649 | > 100
23 | NCCCOc1cc(Cl)ccc1NC(=O)c1cc2ccccc2cc1OCCCN | 1.62 | 4.16
24 | C=C1C(=O)OC2C1CC(OC(C)=O)/C(C)=C/CCC1(C)OC21 (stereo unspecified) |  | > 100
25 | COc1cc(/C=C/C(=O)C(C(=O)/C=C/c2ccc(OC(=O)CCNC34CC5CC(CC(C5)C3)C4)c(OC)c2)C(=O)CCNC23CC4CC(CC(C4)C2)C3)ccc1OC(=O)CCNC12CC3CC(CC(C3)C1)C2 (stereo unspecified) | 1.69 | 3.24
26 | CCOC(=O)C1=C(N)Oc2c(sc3c(C)cccc23)C1c1ccc(F)cc1 (stereo unspecified) | 0.938 | 12.8
27 | NC(N)=N/N=C(\N=Nc1ccccc1)c1ccc(Cl)cc1 | 2.29 | 5.39

What follows are compounds tested on MDA-MB-435 (assay: DTP human tumour cell line panel, 48 h).

Row | SMILES | GI50 [µM] | TGI [µM]
28 | O=C(CCN1CCOCC1)Nc1cccc(-n2cc(-c3ccncc3)c(-c3ccc(Cl)c(O)c3)n2)c1 | 0.313 | 1.29
29 | C=C(C)[C@@H]1CC[C@]2(C)[C@H](CC[C@@H]3[C@@H]([C@@](C)(O)CCC=C(C)C)CC[C@]32C)[C@@]1(C)CCC(=O)O | 17.9 | 38.6
30 | c1ccc(NCCSc2nc3ccccc3s2)cc1 |  | > 100
31 | Oc1ccc(Oc2cnc3ccccc3n2)cc1 | > 100 | > 100
32 | Cc1ccc2occ/c(=N\Nc3ccccc3)c2c1 |  | > 100
33 | CC(=O)NC1CONC1=O (stereo unspecified) |  | > 100
34 | Oc1ccc(N=Nc2nccs2)c(O)c1 | 4.77 | 31
35 | COc1cc(/C=C/C(=O)Oc2ccccc2)ccc1C(=O)O/C=C/c1ccccc1 |  | > 100
36 | CC(Cl)CN1c2ccccc2Sc2ccc(Cl)cc21 (stereo unspecified) |  | > 10
37 | O=C1c2ccccc2C(=O)c2c(NCCN=Cc3ccccc3O)cccc21 | 2.51 | 7.4
38 | Oc1ccc(/C=C/c2cc(O)cc3c2C(c2cc(O)cc(O)c2)C(c2ccc(O)c(O)c2)O3)cc1 (stereo unspecified) |  | > 100
39 | CC1(C)N=C(N)N=C(N)N1c1cccc(OCCOc2cccc([N+](=O)[O-])c2)c1 | 0.495 | > 100
40 | CCc1nc(Cl)c(Cl)c(Cl)n1 |  | > 100
41 | O=[N+]([O-])c1ccc(Sc2c3ccccc3nc3ccccc23)cn1 |  | 33.2
42 | CNC(C)[C@H]1CCC2C3CC=C4C(=O)[C@@H](NC(=O)C=C(C)C)CC[C@]4(C)C3CC[C@@]21C (stereo partly specified) | 1.36 | 3.27
43 | Clc1nc(Cl)c2ncn(Cc3ccccc3Cn3cnc4c(Cl)nc(Cl)nc43)c2n1 | 2.31 | 5.58
44 | CS(=O)(=O)CS(=O)(=O)OCCCl |  | 2330
45 | CC(C)(C)c1cc(C(=O)/C=C/c2ccc(C(=O)O)cc2)cc(C(C)(C)C)c1 |  | 6.66
46 | COc1ccc(-c2ccc(NNC(=O)c3ccc(F)cc3)nn2)cc1OC | > 100 | > 100
47 | Cc1noc2c1-c1ccccc1C(c1ccc(Cl)cc1)=N[C@H]2CC(N)=O | 2.78 | > 100
48 | O=C(N/N=C/c1ccc(O)cc1O)c1cccnc1 | 7.52 | > 100
49 | O=C(NNc1cnccn1)c1nc2cc(F)ccc2n2cccc12 | 0.873 | > 100
50 | NCCCOc1cc(Cl)ccc1NC(=O)c1cc2ccccc2cc1OCCCN | 1.8 | 3.59
51 | C=C1C(=O)OC2C1CC(OC(C)=O)/C(C)=C/CCC1(C)OC21 (stereo unspecified) |  | > 100
52 | COc1cc(/C=C/C(=O)C(C(=O)/C=C/c2ccc(OC(=O)CCNC34CC5CC(CC(C5)C3)C4)c(OC)c2)C(=O)CCNC23CC4CC(CC(C4)C2)C3)ccc1OC(=O)CCNC12CC3CC(CC(C3)C1)C2 (stereo unspecified) | 2.88 | 35.3
53 | CCOC(=O)C1=C(N)Oc2c(sc3c(C)cccc23)C1c1ccc(F)cc1 (stereo unspecified) | 0.21 | 0.464
54 | NC(N)=N/N=C(\N=Nc1ccccc1)c1ccc(Cl)cc1 | 1.7 | 4.36

These compounds were tested on SF-295 CNS (assay: DTP human tumour cell line panel, 48 h).

Row | SMILES | GI50 [µM] | TGI [µM]
55 | O=C(CCN1CCOCC1)Nc1cccc(-n2cc(-c3ccncc3)c(-c3ccc(Cl)c(O)c3)n2)c1 | 1.31 | 3.38
56 | C=C(C)[C@@H]1CC[C@]2(C)[C@H](CC[C@@H]3[C@@H]([C@@](C)(O)CCC=C(C)C)CC[C@]32C)[C@@]1(C)CCC(=O)O | 17.7 | 32.2
57 | c1ccc(NCCSc2nc3ccccc3s2)cc1 |  | > 100
58 | Oc1ccc(Oc2cnc3ccccc3n2)cc1 | 38.2 | > 100
59 | Cc1ccc2occ/c(=N\Nc3ccccc3)c2c1 |  | > 100
60 | CC(=O)NC1CONC1=O (stereo unspecified) |  | > 100
61 | Oc1ccc(N=Nc2nccs2)c(O)c1 | 2.73 | 15.1
62 | COc1cc(/C=C/C(=O)Oc2ccccc2)ccc1C(=O)O/C=C/c1ccccc1 |  | > 100
63 | CC(Cl)CN1c2ccccc2Sc2ccc(Cl)cc21 (stereo unspecified) |  | > 10
64 | O=C1c2ccccc2C(=O)c2c(NCCN=Cc3ccccc3O)cccc21 | 2.43 | 5.01
65 | Oc1ccc(/C=C/c2cc(O)cc3c2C(c2cc(O)cc(O)c2)C(c2ccc(O)c(O)c2)O3)cc1 (stereo unspecified) |  | > 100
66 | CC1(C)N=C(N)N=C(N)N1c1cccc(OCCOc2cccc([N+](=O)[O-])c2)c1 | 15 | > 100
67 | CCc1nc(Cl)c(Cl)c(Cl)n1 |  | > 100
68 | O=[N+]([O-])c1ccc(Sc2c3ccccc3nc3ccccc23)cn1 |  | > 100
69 | CNC(C)[C@H]1CCC2C3CC=C4C(=O)[C@@H](NC(=O)C=C(C)C)CC[C@]4(C)C3CC[C@@]21C (stereo partly specified) | 1.63 | 4.41
